Measurements published in patent US20150231090A1 (Hong Kong Baptist University, priority 2013, published 2015).

Assay: Toxicity of Guttiferone K in vivo
Set-up: species or system BALB/c male mice
Details: 1, 3, 10 mg/kg i.p. for 28 days

SMILES: CC(C)=CCC[C@@]1(C)[C@H](CC=C(C)C)C[C@]2(CC=C(C)C)C(=O)[C@@]1(CC=C(C)C)C(=O)C(C(=O)c1ccc(O)c(O)c1)=C2O [Guttiferone K]
- organ size and cell morphology of target organs (brain, heart, lung, liver, spleen, kidney): no evidence of organ size and cell morphology of target organs
